From US20250361226A1, “PHARMACEUTICALLY ACCEPTABLE SALT OF BENZO[C]CHROMAN COMPOUND AND P[…] AND USE OF PHARMACEUTICALLY ACCEPTABLE SALT” (REISTONE BIOPHARMA COMPANY LIMITED, priority 2022, published 2025) come the findings set out here.

A short description of data set [1]: Dynamic vapor sorption (DVS) with XRPD before and after. In kind it is physicochemical. The procedure:
(§1) Test conditions for the instruments used in experiments of the present disclosure: • 1. X-ray Powder Diffraction, XRPD • Instrument type: Malver Panalytical Aeris X-ray powder diffractometer • Ray: monochromatic Cu—Kα ray (λ=1.54188) • Scanning mode: θ/2θ, Scanning range (2θ range): 3.5-50° • Voltage: 40 kV, Electric current: 15 mA • 2. Differential Scanning calorimetry, DSC • Instrument type: TA DSC250 • Purge gas: Nitrogen; Nitrogen purge rate: 50 mL/min • Heating rate: 10° C./min • Temperature range: 25° C.-250° C. • 3. Thermogravimetric Analysis, TGA • Instrument type: TA TGA550 • Purge gas: Nitrogen; Nitrogen purge rate: 20 ml/min • Scanning rate: 10° C./min • Temperature range: 30° C.-350° C. • 4. Dynamic vapor sorption (DVS) • Using SMS Intrinsic PLUS, the detection is performed at 25° C., with humidity change of 50%-0%-90% with a step size of 10%, in which the criteria for judging is that the mass change dM/dT for each gradient is less than 0.002%, TMAX is 360 min, and two cycles are performed. • 5. High performance liquid chromatography (HPLC) described in the stability test of the crystal form A of the present disclosure is determined on Agilent 1260 Infinity II.
During the humidity change of 0%-90% RH, the desorption process of the sample coincides with the adsorption process thereof.

Data set [2] in a line: Stability test (influence factor tests: light, temperature, humidity) by HPLC and XRPD. Format: physicochemical. The procedure:
as §1
In the content detection method by the high performance liquid chromatography described in the present disclosure, HPLC conditions are as follows: chromatographic column, Agilent Eclipse Plus C18 4.6 mm*150 mm, 3.5 μm; mobile phase, A-10 mmol/L solution of sodium dihydrogen phosphate (pH 8.0), and B-ACN; flow rate, 1.0 ml/min; wavelength, 210 nm.
In the related substances detection method by the high performance liquid chromatography described in the present disclosure, HPLC conditions are as follows: chromatographic column, Agilent Eclipse Plus C18 4.6 mm*150 mm, 3.5 μm; mobile phase, A-10 mmol/L solution of ammonium acetate, and B-ACN; flow rate, 1.0 ml/min; wavelength, 210 nm.
It is determined whether light, temperature and humidity have an influence on the stability of crystal form A of hydrochloride salt of the compound of formula I. The crystal form A of hydrochloride salt was placed in a stabilizing chamber in the dark and subjected to influence factor tests using a series of temperature and humidity combinations. After being placed for different days under light and various temperature and humidity conditions, the samples were taken out and compared with the initial crystal form A of hydrochloride salt. […] The samples taken out on the last day under light and various temperature and humidity conditions were subjected to XRPD detection, showing that the crystal form A of hydrochloride salt had no change and had good stability.

With `Cl.N#Cc1ccc2c(c1)COc1cc(C[C@@H](C#N)NC(=O)[C@@H]3CNCCCO3)c(F)cc1-2` [Crystal form A of hydrochloride salt], in data set [1] (DVS, 25° C., 80% RH), the “weight gain by hygroscopicity” value is “approximately 1.1%”. In data set [1] (humidity change 0%-90% RH), the “crystal form before and after DVS detection (XRPD)” value is “the crystal form did not change”. Besides, the Content % amounted to 99.37% in data set [2] (25° C. 92% - one week); 99.31% in data set [2] (25° C. 92% - two weeks); 99.31% in data set [2] (40° C. 75% - one week); 99.32% in data set [2] (40° C. 75% - two weeks); 99.31% in data set [2] (60° C. - one week); 99.33% in data set [2] (60° C. - two weeks). The Content % in data set [2] (initial) is given as 99.54%; in data set [2] (light, 0.5 ICH), 99.44%; in data set [2] (light, 1 ICH), 99.32%. In addition, the Isomers % in data set [2] (25° C. 92% - one week) was 0.63%; in data set [2] (25° C. 92% - two weeks), 0.70%; in data set [2] (40° C. 75% - one week), 0.69%; in data set [2] (40° C. 75% - two weeks), 0.68%; in data set [2] (60° C. - one week) it was 0.70%; in data set [2] (60° C. - two weeks), 0.67%. Further, the Isomers % in data set [2] (initial) is on record as 0.67%; in data set [2] (light, 0.5 ICH) it was 0.67%; in data set [2] (light, 1 ICH), 0.67%. Also, the “increase in isomers of the compound of formula I versus initial (HPLC)” value in data set [2] (different days under light and various temperature and humidity conditions) is “none of them had a significant increase”. Moreover, the “crystal form by XRPD after influence factor tests” value in data set [2] (samples of the last day under light and various temperature and humidity conditions) is “had no change”.
